Measured values: patent publication US5166379A, “Synthesis of compounds with biological activity, and methods of use” (Harbor Branch Oceanographic Institution, Inc., priority 1990, dated 1992)
≈ marks a conversion by molar mass, not a printed value. Read-outs that look alike come from different tables or passages of the source.

Columns and labels:
[1] = tested on: graft vs host reaction in CB6F1 mice grafted with BALB/c splenocytes; assay: Graft vs. Host (GVHR) in vivo activity; details: for % Suppression / Stim. Index (spleen index): i.p.
Protocol: III. Graft vs. Host (GVHR) In Vivo Activity
1. Donor mice (BALB/c) were sacrificed, spleens removed, and spleen cell suspensions prepared in tissue culture medium.
2. The above splenocyte suspension was adjusted to 10.0×10^7 cells/ml.
3. Mice were treated with varying dosages of the test compound. […] Treatment consisted of intraperitoneal injections, daily for 7 days. Dosages were calculated on a mg per kg body weight basis.
4. On day 1 of the first treatment regimen, recipient mice (CB6) were injected intraperitoneally with 0.50 ml (50.0×10^6) of the donor (BALB/c) splenocyte suspension.
5. Controls consisted of the following:
POS--mice receiving BALB/c splenocytes (Positive Control)
SYN--mice receiving CB6 splenocytes (Syngeneic Control)
CYP--mice receiving Cyclophosphamide (100 mg/kg) and BALB/c splenocytes
6. At the end of five days, recipient mice were sacrificed, weighed, and spleens removed and weighed.
7. A spleen index of 1.0 was assigned to the mean spleen weights (adjusted to body weight) of the SYN controls. The spleen index of treated mice was determined by comparing the spleen weights of those mice with that of the […]. […] As a general rule, a spleen index of less than the positive control is indicative of an immunosuppressive (ID) compound.
^a CB6F1 mice (5 mice per group) were grafted with 5 ×
10^7 BALB/c spelnocytes, i.p. on Day 0. Groups were injected, ii.p.,
with drug (or vehicle) on Days 1-6. Positive designates grafted mice
receiving vehicle alone.
^b Number of surviving mice at end of experiment.
(Stimulation Index of Syngeneic group (CB6F1 ->CB6F1) = 100

[2] = tested on: murine splenocyte suspensions (BALB/c and C57BL/6J mice); assay: Mixed Lymphocyte Reaction (MLR); assay type: cell-based; details: Mus musculus, Splenocyte, read-out: % MLR (percentage of positive control)
Protocol: I. Mixed Lymphocyte Reaction
1. Murine splenocyte suspensions were prepared separately from BALB/c and C57BL/6J mice. […] The cell concentrations were adjusted to 2.5×10^6 cells/ml. Aliquots of each cell population were removed to separate tubes, and the remaining two cell suspensions combined to one tube.
(§1) 2. Serial, log10 dilutions of the pure compound were made in absolute ethanol, and 10 μl of each dilution was added to wells of microtiter test plates, and allowed to dry.
3. A volume of 0.2 ml of the combined splenocyte suspensions was added to triplicate test wells. Positive control wells received combined splenocyte suspensions in the absence of the test compounds. Negative control wells consisted of separate (not mixed) splenocyte suspensions cultured in the absence of the test compounds.
4. Plates were incubated in 5% CO2 at 37° C. for 86 hours.
5. A volume of 0.05 ml of ^3 H-thymidine (20 μCi/ml) was added to each well, and the plates were incubated in 5% CO2 at 37° C. for an additional 5 hours.
6. The contents of each well of the microtiter plates were harvested onto glass fiber filter strips, and the resulting filter discs placed in scintillation vials to which 2.0 ml of scintillation fluid was added.
7. The amount of incorporated ^3 H-thymidine was determined by counting the vials in a liquid scintillation counter.
8. Triplicate counts were averaged, and the data reported as a percentage of the positive control.

[3] = tested on: P388 cells; assay: Antiproliferative effects against P388 cells (antitumor, MTT); assay type: cell-based; details: Mus musculus, P388, 48 hour exposure
Protocol: IV. Antitumor Methodology
To assess the antiproliferative effects against P388 cells, 200 μl cultures (96-well tissue culture plates, Nunc, Denmark) were established at 1×10^5 cells/ml in drug-free medium or medium containing the pure compounds/crude extracts at a final dilution or 1:500 and at various concentrations. Solvent for all dilutions was methanol, which was removed from plates under vacuum. All experimental cultures were initiated in media containing Gentamicin sulfate (50 μg/ml; Schering Corporation, Kenilworth, NJ).
To quantitate the effects of pure compounds/crude extracts on cell proliferation, 75 μl of warm growth medium containing 5 mg/ml MTT was added to each well, cultures were returned to the incubator, and were left undisturbed for 90 minutes. To spectrophotometrically quantitate formation of reduced formazan, plates were centrifuged (900×g, 5 minutes), culture fluids removed by aspiration, and 200 μl of acidified isopropanol (2 ml concentrated HCl/liter isopropanol) added per well. The absorbance of the resulting solutions were measured at 570 nm with a plate reader (MR700 Microplate Reader, Dynatech Laboratories, Chantilly, VA).

[4] = Lymphocyte Viability Assay (LCV); assay type: cell-based, murine; details: mouse, splenocytes, read-out: % LCV (percentage of positive control)
Protocol: II. Lymphocyte Viability Assay
1. Compounds were similarly tested in parallel with the MLR to determine their toxic effects on lymphoid cells using the lymphocyte viability assay (LCV).
as §1
3. Murine splenocyte suspensions were prepared from BALB/c mice. […] The cell concentrations were adjusted to 2.5×10^6 cells/ml.
4. A volume of 0.2 ml of the splenocyte suspension was added to replicate test wells. Positive control wells received splenocyte suspensions in the absence of the test compounds.
5. Plates were incubated at 37° C. for 86 hours. At the end of the incubation period, a volume of 75 μl of a 2.0 mg/ml solution of MTT was added to each well, and the plates were returned to the incubator for an additional 5 hours.
6. The supernatants from each microwell were then removed, and a volume of 200 μl of isopropanol was added and the contents mixed.
7. Values were obtained by comparing the optical densities (determined at 570 and 650 nm) of wells containing the test compounds with those of wells containing cells and medium only (positive control). The results are expressed as a percentage of the positive control.
8. Replicate counts were averaged, and the data reported as a percentage of the positive control. An LCV value of less than 60% of the positive control is an indication of cytotoxicity of the test compounds for lymphoid cells.

## C#CC(O)/C=C/CCCCCCCCCCCCCCC (stereo not shown) [CH3 (CH2)14 CH=CH--CHOH--C≡CH]
[1]; 25.0 mg/kg
  % Suppression: 45%
  Stim. Index (spleen index): 1.63 ± .25
[1]; 50.0 mg/kg
  % Suppression: 25%
  Stim. Index (spleen index): 1.86 ± .18
[1]; 100 mg/kg
  % Suppression: 0%
  Stim. Index (spleen index): 2.35 ± .15
[1]; 150.0 mg/kg
  % Suppression: 81%
  Stim. Index (spleen index): 1.22 ± .03
[1]; mouse, in vivo
  suppression of the GVHR (splenomegaly response), in words: could mediate the suppression of the GVHR
[2]; 0.05 μg/ml
  activity at 0.05 µg/mL: 0%
[2]; 0.2 μg/ml
  activity at 0.2 µg/mL: 0%
[2]; 0.8 μg/ml
  activity at 0.8 µg/mL: 0%
[2]; 3.1 μg/ml
  activity at 3.1 µg/mL: 0%
[2]; 12.5 μg/ml
  activity at 12.5 µg/mL: 0%
[2]; 50 μg/ml
  activity at 50 µg/mL: 0%
[3]
  IC50: 9.4 µg/mL (≈ 32.1 µM)
[4]; 0.05 μg/ml
  viability: 63%
[4]; 0.2 μg/ml
  viability: 42%
[4]; 0.8 μg/ml
  viability: 20%
[4]; 3.1 μg/ml
  viability: 19%
[4]; 12.5 μg/ml
  viability: 19%
[4]; 50 μg/ml
  viability: 11%
